According to PubChem BioAssay (NCI):
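Growth conditions: 96-well plates. Treatment: test compound, 48 hours, 5 concentrations. Analysis: linear interpolation between bracketing concentrations; unreached endpoints set to highest concentration. TGI is the concentration that stops growth completely.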

Key:
Experiment in all cases: inhibition of tumour cell growth, NCI panel, 48 h
IGROV1 ovarian = tested on: IGROV1 ovarian
M19-MEL melanoma = tested on: M19-MEL melanoma
SN12C renal = tested on: SN12C renal
NCI-H522 lung = tested on: NCI-H522 lung
MALME-3M melanoma = tested on: MALME-3M melanoma
HCC-2998 colon = tested on: HCC-2998 colon
EKVX NSCLC = tested on: EKVX NSCLC
SR leukemia = tested on: SR leukemia
OVCAR-8 ovarian = tested on: OVCAR-8 ovarian
SF-539 CNS = tested on: SF-539 CNS
RPMI-8226 leukemia = tested on: RPMI-8226 leukemia
HCT-15 colon = tested on: HCT-15 colon
SNB-75 CNS = tested on: SNB-75 CNS
UACC-257 melanoma = tested on: UACC-257 melanoma
OVCAR-3 ovarian = tested on: OVCAR-3 ovarian
UO-31 renal = tested on: UO-31 renal
MOLT-4 leukemia = tested on: MOLT-4 leukemia
SNB-19 CNS = tested on: SNB-19 CNS
DMS 114 small cell lung = tested on: DMS 114 small cell lung
NCI-H23 lung = tested on: NCI-H23 lung
COLO 205 colon = tested on: COLO 205 colon
HOP-18 NSCLC = tested on: HOP-18 NSCLC
DLD-1 colon = tested on: DLD-1 colon
XF 498 CNS = tested on: XF 498 CNS
HL-60(TB) leukemia = tested on: HL-60(TB) leukemia
SW-620 colon = tested on: SW-620 colon
HOP-62 NSCLC = tested on: HOP-62 NSCLC
SF-295 CNS = tested on: SF-295 CNS
KM20L2 colon = tested on: KM20L2 colon
LOX IMVI melanoma = tested on: LOX IMVI melanoma
786-0 renal = tested on: 786-0 renal
SNB-78 CNS = tested on: SNB-78 CNS
SK-MEL-28 melanoma = tested on: SK-MEL-28 melanoma
SF-268 CNS = tested on: SF-268 CNS
HCT-116 colon = tested on: HCT-116 colon
K-562 leukemia = tested on: K-562 leukemia
UACC-62 melanoma = tested on: UACC-62 melanoma
CCRF-CEM leukemia = tested on: CCRF-CEM leukemia
DMS 273 small cell lung = tested on: DMS 273 small cell lung
SK-MEL-2 melanoma = tested on: SK-MEL-2 melanoma
SK-MEL-5 melanoma = tested on: SK-MEL-5 melanoma
SK-OV-3 ovarian = tested on: SK-OV-3 ovarian
CAKI-1 renal = tested on: CAKI-1 renal
OVCAR-5 ovarian = tested on: OVCAR-5 ovarian
NCI-H460 lung = tested on: NCI-H460 lung
NCI-H226 lung = tested on: NCI-H226 lung
OVCAR-4 ovarian = tested on: OVCAR-4 ovarian
LXFL 529 NSCLC = tested on: LXFL 529 NSCLC
M14 melanoma = tested on: M14 melanoma
A549 NSCLC = tested on: A549 NSCLC
HT29 colon = tested on: HT29 colon
U251 CNS = tested on: U251 CNS
RXF 393 renal = tested on: RXF 393 renal
KM12 colon = tested on: KM12 colon
ACHN renal = tested on: ACHN renal
A498 renal = tested on: A498 renal
HOP-92 NSCLC = tested on: HOP-92 NSCLC
TK-10 renal = tested on: TK-10 renal

O=C(CC(=O)c1ccccc1)C(=O)NC12CC3CC(CC(C3)C1)C2
TGI (IGROV1 ovarian): > 100 µM | TGI (M19-MEL melanoma): > 100 µM | TGI (SN12C renal): > 100 µM | TGI (NCI-H522 lung): > 100 µM | TGI (MALME-3M melanoma): > 100 µM | TGI (HCC-2998 colon): > 100 µM | TGI (EKVX NSCLC): > 100 µM | TGI (SR leukemia): > 100 µM | TGI (OVCAR-8 ovarian): > 100 µM | TGI (SF-539 CNS): > 100 µM | TGI (RPMI-8226 leukemia): > 66 µM | TGI (HCT-15 colon): > 54.3 µM | TGI (SNB-75 CNS): > 100 µM | TGI (UACC-257 melanoma): > 100 µM | TGI (OVCAR-3 ovarian): > 100 µM | TGI (UO-31 renal): > 100 µM | TGI (MOLT-4 leukemia): > 100 µM | TGI (SNB-19 CNS): > 100 µM | TGI (DMS 114 small cell lung): > 58.4 µM | TGI (NCI-H23 lung): > 100 µM | TGI (COLO 205 colon): > 64.8 µM | TGI (HOP-18 NSCLC): > 100 µM | TGI (DLD-1 colon): > 70 µM | TGI (XF 498 CNS): > 100 µM | TGI (HL-60(TB) leukemia): > 69.1 µM | TGI (SW-620 colon): > 58.7 µM | TGI (HOP-62 NSCLC): > 100 µM | TGI (SF-295 CNS): > 100 µM | TGI (KM20L2 colon): > 100 µM | TGI (LOX IMVI melanoma): > 50 µM | TGI (786-0 renal): 99.7 µM | TGI (SNB-78 CNS): > 100 µM | TGI (SK-MEL-28 melanoma): > 100 µM | TGI (SF-268 CNS): > 100 µM | TGI (HCT-116 colon): > 100 µM | TGI (K-562 leukemia): > 100 µM | TGI (UACC-62 melanoma): > 100 µM | TGI (CCRF-CEM leukemia): > 80.4 µM | TGI (DMS 273 small cell lung): > 70.2 µM | TGI (SK-MEL-2 melanoma): > 100 µM | TGI (SK-MEL-5 melanoma): > 100 µM | TGI (SK-OV-3 ovarian): > 100 µM | TGI (CAKI-1 renal): > 100 µM | TGI (OVCAR-5 ovarian): > 100 µM | TGI (NCI-H460 lung): > 56.9 µM | TGI (NCI-H226 lung): > 100 µM | TGI (OVCAR-4 ovarian): > 100 µM | TGI (LXFL 529 NSCLC): > 100 µM | TGI (M14 melanoma): > 100 µM | TGI (A549 NSCLC): > 100 µM | TGI (HT29 colon): > 100 µM | TGI (U251 CNS): > 100 µM | TGI (RXF 393 renal): > 47.3 µM | TGI (KM12 colon): > 100 µM | TGI (ACHN renal): > 100 µM | TGI (A498 renal): > 100 µM | TGI (HOP-92 NSCLC): > 100 µM | TGI (TK-10 renal): > 100 µM
